Assays:
Assay type in all cases: in vivo
[1] = system: redroot pigweed (Amaranthus retroflexus, AMARE); test: Pre-emerge test, greenhouse herbicide activity screening; conditions: phytotoxicity rating 0-100, 14 days after application
Summary of the method: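 Plants grown in 10 cm pots of sandy loam mix received acetone-dissolved compounds through a moving flat-fan nozzle. Doses ranged from 15 to 1000 g ai/ha. Pre-emerge pots were seeded one day earlier, post-emerge pots 8–21 days earlier. Fourteen days on, each pot was graded 0–100 for damage.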

[2] = system: upland rice (Oryza sp., var. Tebonnet, RICE); test: Pre-emerge test, crop safety; conditions: crop damage rating 0-100, 14 days after application
Summary of the method: (§1)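 Compounds in acetone were track-sprayed at 15-1000 g ai/ha (187 l/ha) on sandy loam pots: pre-emerge one day after seeding, post-emerge at 2-3 leaf stage with 0.25% v/v non-ionic surfactant. Phytotoxicity was rated 14 days later on a 0 (no damage) to 100 (complete death) scale.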

[3] = system: field corn (Zea mays L., var. Dekalb 535, CORN); test: Pre-emerge test, crop safety; conditions: crop damage rating 0-100, 14 days after application
Summary of the method: as §1

[4] = system: velvetleaf (Abutilon theophrasti, ABUTH); test: Pre-emerge test, greenhouse herbicide activity screening; conditions: phytotoxicity rating 0-100, 14 days after application
Source text: (§2) A standard greenhouse herbicide activity screening system was used to evaluate the herbicidal efficacy and crop safety of these test compounds. Seven broadleaf weed species including redroot pigweed (Amaranthus retroflexus, AMARE, velvetleaf (Abutilon theophrasti, ABUTH), sicklepod (Cassia obtusifolia, CASOB), ivyleaf morningglory (Ipomoea hederacea, IPOHE), lambsquarters (Chenopodium album, CHEAL), common ragweed (Ambrosia artemisizfolia L., AMBEL), and cocklebur (Xanthium strumarium, XANST) were used as test species. Four grass weed species including green foxtail (Setaria viridis, SETVI), barnyardgrass (Echinochloa crus-galli, ECHCG), johnsongrass (Sorghum halepense, SORHA), and large crabgrass (Digitaria sanguinalis, DIGSA) were also used. In addition, three crop species, field corn (Zea mays L., var. Dekalb 535, CORN), soybean (Glycine max L., var. Pella 86, SOY), and is upland rice (Oryza sp., var. Tebonnet, RICE) were included.
(§3) All plants were grown in 10 cm square plastic pots which were filled with a sandy loam soil mix. For pre-emerge tests, seeds were planted one day prior to application of the test compounds. For post-emerge tests, seeds were planted 8-21 days prior to the test to allow emergence and good foliage development prior to application of the test substances. At the time of the post-emerge application, plants of all species were usually at the 2-3 leaf stage of development.
(§4) All test compounds Were dissolved in acetone and applied to the test units in a volume of 187 l /ha. Test materials were applied at rates ranging from 15 g ai/ha to 1000 g ai/ha using a track sprayer equipped with a TJ8001E even flow flat fan spray nozzle. Plants were arranged on a shelf so that the top of the canopy (post-emerge) or top of the soil surface (pre-emerge) was 40-45 cm below the nozzle. Pressurized air was used to force the test solution through the nozzle as it was mechanically advanced (via electrically driven chain drive) over the top of all test plants/pots. This application simulates a typical commercial field herbicide application.
(§5) In the post-emerge test, a commercial non-ionic surfactant was also included (0.25% v/v) to enhance wetting of the leaf surfaces of target plants. Immediately after application, test units of the pre-emerge applications were watered at the soil surface to incorporate the test materials. Subsequently, these test units were bottom-watered. Post-emerge test units were always bottom-watered.
(§6) At 14 days after application of the test materials, phytotoxicity ratings were recorded. A rating scale of 0-100 was used as previously described in Research Methods in Weed Science, 2nd edition, B. Truelove, Ed., Southern Weed Science Society, Auburn University, Auburn, Ala. 1977. Briefly, “0” corresponds to no damage and “100” corresponds to complete death of all plants in the test unit. This scale was used both to determine efficacy against weed species and damage to crop species. Herbicide activity data for various compounds of this invention, which are shown by compound No. in Tables 1-8, are shown in Tables 11 and 12.

[5] = system: sicklepod (Cassia obtusifolia, CASOB); test: as above; conditions: phytotoxicity rating 0-100, 14 days after application
Source text: as §2, §3, §4, §5, §6

[6] = system: large crabgrass (Digitaria sanguinalis, DIGSA); test: as above; conditions: phytotoxicity rating 0-100, 14 days after application
Source text: as §2, §3, §4, §5, §6

[7] = system: barnyardgrass (Echinochloa crus-galli, ECHCG); test: as above; conditions: phytotoxicity rating 0-100, 14 days after application
Source text: as §2, §3, §4, §5, §6

[8] = system: green foxtail (Setaria viridis, SETVI); test: as above; conditions: phytotoxicity rating 0-100, 14 days after application
Source text: as §2, §3, §4, §5, §6

[9] = system: ivyleaf morningglory (Ipomoea hederacea, IPOHE); test: as above; conditions: phytotoxicity rating 0-100, 14 days after application
Source text: as §2, §3, §4, §5, §6

[10] = system: lambsquarters (Chenopodium album, CHEAL); test: as above; conditions: phytotoxicity rating 0-100, 14 days after application
Source text: as §2, §3, §4, §5, §6

[11] = system: upland rice (Oryza sp., var. Tebonnet, RICE); test: Post-emerge test, crop safety; conditions: post-emerge, 14 days after application, rating scale 0-100
Summary of the method: (§7)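 Fourteen days after spraying, crop and weed injury was graded visually from 0, no effect, to 100, every plant dead. Test substances were dissolved in acetone and applied at 15–1000 g ai/ha with a flat-fan nozzle. Application was either pre-emergence, one day after sowing, or post-emergence at the 2–3 leaf stage.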

[12] = system: field corn (Zea mays L., var. Dekalb 535, CORN); test: Post-emerge test, crop safety; conditions: post-emerge, 14 days after application, rating scale 0-100
Summary of the method: as §7

[13] = system: velvetleaf (Abutilon theophrasti, ABUTH); test: Post-emerge test, greenhouse herbicide activity screening; conditions: post-emerge, 14 days after application, rating scale 0-100
Source text: as §2, §3, §4, §5, §6

[14] = system: sicklepod (Cassia obtusifolia, CASOB); test: as above; conditions: post-emerge, 14 days after application, rating scale 0-100
Source text: as §2, §3, §4, §5, §6

[15] = system: large crabgrass (Digitaria sanguinalis, DIGSA); test: as above; conditions: post-emerge, 14 days after application, rating scale 0-100
Source text: as §2, §3, §4, §5, §6

[16] = system: barnyardgrass (Echinochloa crus-galli, ECHCG); test: as above; conditions: post-emerge, 14 days after application, rating scale 0-100
Source text: as §2, §3, §4, §5, §6

[17] = system: green foxtail (Setaria viridis, SETVI); test: as above; conditions: post-emerge, 14 days after application, rating scale 0-100
Source text: as §2, §3, §4, §5, §6

[18] = system: redroot pigweed (Amaranthus retroflexus, AMARE); test: as above; conditions: post-emerge, 14 days after application
Source text: as §2, §3, §4, §5, §6

[19] = system: ivyleaf morningglory (Ipomoea hederacea, IPOHE); test: as above; conditions: post-emerge, 14 days after application, rating scale 0-100
Source text: as §2, §3, §4, §5, §6

[20] = system: lambsquarters (Chenopodium album, CHEAL); test: as above; conditions: post-emerge, 14 days after application, rating scale 0-100
Source text: as §2, §3, §4, §5, §6

[21] = 63 g ai/ha, rating scale 0-100 (0 no damage, 100 complete death)
[22] = 250 g ai/ha, rating scale 0-100

Structure (SMILES)	Pre-emerge Herbicidal Activity AMARE ([1]; 63 g ai/ha)	Pre-emerge Herbicidal Activity AMARE ([1]; 250 g ai/ha)	Pre-emerge Herbicidal Activity RICE ([2]; 63 g ai/ha)	Pre-emerge Herbicidal Activity RICE ([2]; 250 g ai/ha)	Pre-emerge Herbicidal Activity CORN ([3]; 63 g ai/ha)	Pre-emerge Herbicidal Activity CORN ([3]; 250 g ai/ha)	Pre-emerge Herbicidal Activity ABUTH ([4]; 63 g ai/ha)	Pre-emerge Herbicidal Activity ABUTH ([4]; 250 g ai/ha)	Pre-emerge Herbicidal Activity CASOB ([5]; 63 g ai/ha)	Pre-emerge Herbicidal Activity CASOB ([5]; 250 g ai/ha)	Pre-emerge Herbicidal Activity DIGSA ([6]; 63 g ai/ha)	Pre-emerge Herbicidal Activity DIGSA ([6]; 250 g ai/ha)	Pre-emerge Herbicidal Activity ECHCG ([7]; 63 g ai/ha)	Pre-emerge Herbicidal Activity ECHCG ([7]; 250 g ai/ha)	Pre-emerge Herbicidal Activity SETVI ([8]; 63 g ai/ha)	Pre-emerge Herbicidal Activity SETVI ([8]; 250 g ai/ha)	Pre-emerge Herbicidal Activity IPOHE ([9]; 63 g ai/ha)	Pre-emerge Herbicidal Activity IPOHE ([9]; 250 g ai/ha)	Pre-emerge Herbicidal Activity CHEAL ([10]; 63 g ai/ha)	Pre-emerge Herbicidal Activity CHEAL ([10]; 250 g ai/ha)	further results
COc1c(Cl)ccc(-n2c(=O)cc(C(F)(F)F)n(C)c2=O)c1NC(=O)c1ccc2ccccc2c1 [2-202]	100	100	40	90	0	50	100	100	30	80	30	100	90	100	40	100	100	100	100	100	phytotoxicity rating RICE (crop damage) ([11]; 63 g ai/ha): 20; phytotoxicity rating RICE (crop damage) ([11]; 250 g ai/ha): 60; phytotoxicity rating CORN (crop damage) ([12]; 63 g ai/ha): 15; phytotoxicity rating CORN (crop damage) ([12]; 250 g ai/ha): 30; phytotoxicity rating ABUTH ([13]; 63 g ai/ha): 100; phytotoxicity rating ABUTH ([13]; 250 g ai/ha): 100; phytotoxicity rating CASOB ([14]; 63 g ai/ha): 100; phytotoxicity rating CASOB ([14]; 250 g ai/ha): 100; phytotoxicity rating DIGSA ([15]; 63 g ai/ha): 0; phytotoxicity rating DIGSA ([15]; 250 g ai/ha): 30; phytotoxicity rating ECHCG ([16]; 63 g ai/ha): 10; phytotoxicity rating ECHCG ([16]; 250 g ai/ha): 40; phytotoxicity rating SETVI ([17]; 63 g ai/ha): 30; phytotoxicity rating SETVI ([17]; 250 g ai/ha): 40; phytotoxicity rating AMARE [18, 21]: 100; phytotoxicity rating AMARE [18, 22]: 100; phytotoxicity rating IPOHE ([19]; 63 g ai/ha): 100; phytotoxicity rating IPOHE ([19]; 250 g ai/ha): 100; phytotoxicity rating CHEAL ([20]; 63 g ai/ha): 100; phytotoxicity rating CHEAL ([20]; 250 g ai/ha): 100
COc1c(Cl)cc(F)c(-n2c(=O)cc(C(F)(F)F)n(C)c2=O)c1NC(=O)OCc1cc(C)ccc1C [4-38]	100	100	35	60	10	20	80	100	30	60	95	100	30	60	100	100	60	50	100	100	phytotoxicity rating RICE (crop damage) ([11]; 63 g ai/ha): 35; phytotoxicity rating RICE (crop damage) ([11]; 250 g ai/ha): 50; phytotoxicity rating CORN (crop damage) ([12]; 63 g ai/ha): 40; phytotoxicity rating CORN (crop damage) ([12]; 250 g ai/ha): 85; phytotoxicity rating ABUTH ([13]; 63 g ai/ha): 100; phytotoxicity rating ABUTH ([13]; 250 g ai/ha): 100; phytotoxicity rating CASOB ([14]; 63 g ai/ha): 90; phytotoxicity rating CASOB ([14]; 250 g ai/ha): 100; phytotoxicity rating DIGSA ([15]; 63 g ai/ha): 40; phytotoxicity rating DIGSA ([15]; 250 g ai/ha): 40; phytotoxicity rating ECHCG ([16]; 63 g ai/ha): 50; phytotoxicity rating ECHCG ([16]; 250 g ai/ha): 50; phytotoxicity rating SETVI ([17]; 63 g ai/ha): 60; phytotoxicity rating SETVI ([17]; 250 g ai/ha): 80; phytotoxicity rating AMARE [18, 21]: 100; phytotoxicity rating AMARE [18, 22]: 100; phytotoxicity rating IPOHE ([19]; 63 g ai/ha): 100; phytotoxicity rating IPOHE ([19]; 250 g ai/ha): 100; phytotoxicity rating CHEAL ([20]; 63 g ai/ha): 100; phytotoxicity rating CHEAL ([20]; 250 g ai/ha): 100
COc1c(Cl)cc(F)c(-n2c(=O)cc(C(F)(F)F)n(C)c2=O)c1NC(=O)OCc1cc(F)ccc1F [4-39]	100	100	80	80	70	90	100	100	30	90	100	100	60	80	100	100	80	100	100	100	phytotoxicity rating RICE (crop damage) ([11]; 63 g ai/ha): 60; phytotoxicity rating RICE (crop damage) ([11]; 250 g ai/ha): 60; phytotoxicity rating CORN (crop damage) ([12]; 63 g ai/ha): 70; phytotoxicity rating CORN (crop damage) ([12]; 250 g ai/ha): 100; phytotoxicity rating ABUTH ([13]; 63 g ai/ha): 100; phytotoxicity rating ABUTH ([13]; 250 g ai/ha): 100; phytotoxicity rating CASOB ([14]; 63 g ai/ha): 100; phytotoxicity rating CASOB ([14]; 250 g ai/ha): 100; phytotoxicity rating DIGSA ([15]; 63 g ai/ha): 50; phytotoxicity rating DIGSA ([15]; 250 g ai/ha): 80; phytotoxicity rating ECHCG ([16]; 63 g ai/ha): 60; phytotoxicity rating ECHCG ([16]; 250 g ai/ha): 90; phytotoxicity rating SETVI ([17]; 63 g ai/ha): 80; phytotoxicity rating SETVI ([17]; 250 g ai/ha): 90; phytotoxicity rating AMARE [18, 21]: 100; phytotoxicity rating AMARE [18, 22]: 100; phytotoxicity rating IPOHE ([19]; 63 g ai/ha): 100; phytotoxicity rating IPOHE ([19]; 250 g ai/ha): 100; phytotoxicity rating CHEAL ([20]; 63 g ai/ha): 100; phytotoxicity rating CHEAL ([20]; 250 g ai/ha): 100

Reference: US6355799B1, “Substituted benzene compounds, process for their preparation, and herbicidal and defoliant compositions containing them” (ISK Americas Incorporated, priority 1997, dated 2002)
